In patent publication US10045962B2 (priority 2014, dated 2018):
Counter-ions that a name gives are not always drawn.

Key:
[1] = system: A549 (lung adenocarcinoma); settings: 10 μM, 72 hours
Description: (§1) These cells were seeded at an amount of 2×10^6 cells, and then added with the culture medium for cultivating the cells to a volume of 10 mL, followed by cultivation for 2 to 3 days. After counting the cell number, these cells were respectively plated in a 96-well plate, in which each well has a fixed cell number of 3000 and a volume of 100 μL.
(§2) After removing the culture medium in the 96-well plate, each well was added with 100 μL of 10 μM commercial drug and then placed for 72 hours. Thereafter, each well was further added with 100 μL of a diluted WST-1 solution (the dilution ratio for the culture medium: WST-1 stock solution (wt/wt) is 9:1).

[2] = system: H1650 (lung adenocarcinoma); settings: 10 μM, 72 hours
Description: as §1, §2

[3] = system: TSGH (urinary bladder carcinoma); settings: 10 μM, 72 hours
Description: as §1, §2

[4] = system: T24; settings: 10 μM, 72 hours
Description: as §1, §2
(§3) Each cancer cell inhibitory experiment was repeated for 4 times, followed by calculation of the mean values thereof, which were shown in the following tables.

[5] = system: HeLa (cervix adenocarcinoma); settings: 10 μM, 72 hours
Description: as §1, §2

[6] = system: 786-O (renal adenocarcinoma); settings: 10 μM, 72 hours
Description: as §1, §2

[7] = system: LNCap; settings: 10 μM, 72 hours, single experiments not given
[8] = system: NIH-OVCAR-3; settings: 10 μM, 72 hours
Description: as §1, §2

[9] = system: TOV-21G; settings: 10 μM, 72 hours
Description: as §1, §2

[10] = system: MKN-45 (gastric adenocarcinoma); settings: 10 μM, 72 hours
Description: as §1, §2, §3

[11] = system: Hep3B (hepatocellular carcinoma); settings: 10 μM, 72 hours
Description: as §1, §2, §3

[12] = system: HCT116-wt (colorectal carcinoma); settings: 10 μM, 72 hours
Description: as §1, §2, §3

[13] = system: BCC (basal cell carcinoma); settings: 10 μM, 72 hours
Description: as §1, §2

[14] = system: Lung cancer; settings: summary over cell lines, 10 μM, 72 hours
Description: as §1, §2

[15] = system: Bladder cancer; settings: summary over cell lines, 10 μM, 72 hours
Description: as §1, §2

[16] = system: Cervical cancer; settings: summary over cell lines, 10 μM, 72 hours
Description: as §1, §2

[17] = system: Prostate cancer; settings: summary over cell lines, 10 μM, 72 hours
Description: as §1, §2

[18] = system: Gastric cancer; settings: summary over cell lines, 10 μM, 72 hours
Description: as §1, §2

In the case of `CNCC[C@H](Oc1cccc2ccccc12)c1cccs1` [duloxetine HCl, Duloxetine hydrochloride], the “Mean survival rate (%)” value ([1]; mean of 4 experiments) is reported as 37.5%, the “survival rate 0524-10 min” value ([1]; single experiment) is reported as 32.8% and the “survival rate 0526-10 min” value ([1]; single experiment) is reported as 53.7%. The “survival rate 0529-10 min” value ([1]; single experiment) was 33.2%, the “survival rate 0531-10 min” value ([1]; single experiment) was 30.1% and the “Mean (survival rate)” value ([2]; mean of 4 experiments) was 36.3%. The “survival rate 1-10 min” value ([2]; single experiment) was 35.2%, the “survival rate 2-20 min” value ([2]; single experiment) was 36.9% and the “survival rate 3-20 min” value ([2]; single experiment) was 33.6%. The “survival rate 4-20 min” value ([2]; single experiment) was 39.4%, the “Mean survival rate (%)” value ([3]; mean of 4 experiments) was 49.2% and the “survival rate 0510-10 min” value ([3]; single experiment) was 36.1%. For the same compound, the “survival rate 0512-10 min” value ([3]; single experiment) was 59.0%, the “survival rate 0515-10 min” value ([3]; single experiment) was 61.2% and the “survival rate 0517-10 min” value ([3]; single experiment) was 40.5%. The “Mean (survival rate)” value ([4]; mean of 4 experiments) was 85.2%, the “survival rate T24-1-30 min” value ([4]; single experiment) was 81.7% and the “survival rate T24-2-20 min” value ([4]; single experiment) was 90.6%. For the same compound, the “survival rate T24-3-20 min” value ([4]; single experiment) was 71.4%, the “survival rate T24-4-20 min” value ([4]; single experiment) was 97.2% and the “Mean survival rate (%)” value ([5]; mean of 4 experiments) was 33.8%. The “survival rate 0524-10 min” value ([5]; single experiment) was 27.7%, the “survival rate 0526-10 min” value ([5]; single experiment) was 29.9% and the “survival rate 0529-10 min” value ([5]; single experiment) was 25.4%. For the same compound, the “survival rate 0531-10 min” value ([5]; single experiment) was 52.1%, the “Mean survival rate (%)” value ([6]; 786-O, mean of 4 experiments) was 67.3% and the “survival rate 0524-10 min” value ([6]; 786-O, single experiment) was 60.4%. For the same compound, the “survival rate 0526-10 min” value ([6]; 786-O, single experiment) was 89.7%, the “survival rate 0529-10 min” value ([6]; 786-O, single experiment) was 49.0% and the “survival rate 0531-10 min” value ([6]; 786-O, single experiment) was 70.1%. For the same compound, the “Survival rate (%)” value ([6]; Renal cancer (786-O), summary table) was 67.3%, the “Mean (survival rate)” value [7] was 72.8% and the “Mean survival rate (%)” value ([8]; mean of 4 experiments) was 68.2%. For the same compound, the “survival rate 7-3-30 min” value ([8]; single experiment) was 64.8%, the “survival rate 7-4-30 min” value ([8]; single experiment) was 74.6% and the “survival rate 7-7-30 min” value ([8]; single experiment) was 78.5%. The “survival rate -4-30 min” value ([8]; single experiment) was 55.0%, the “Mean (survival rate)” value ([9]; mean of 4 experiments) was 34.9% and the “survival rate 7-3-30 min” value ([9]; single experiment) was 30.9%. The “survival rate 7-4-30 min” value ([9]; single experiment) was 41.9%, the “survival rate 7-7-30 min” value ([9]; single experiment) was 34.7% and the “survival rate -4-30 min” value ([9]; single experiment) was 31.9%. For the same compound, the “Mean (survival rate)” value ([10]; mean of 4 experiments) was 59.7%, the “survival rate 0510-10 min” value ([10]; single experiment) was 59.5% and the “survival rate 0512-10 min” value ([10]; single experiment) was 75.3%. The “survival rate 0515-10 min” value ([10]; single experiment) was 46.0%, the “survival rate 0517-10 min” value ([10]; single experiment) was 57.9% and the “Mean (survival rate)” value ([11]; mean of 4 experiments) was 47.9%. For the same compound, the “survival rate 0612-20 min” value ([11]; single experiment) was 41.4%, the “survival rate 0614-20 min” value ([11]; single experiment) was 53.3% and the “survival rate 0616-20 min” value ([11]; single experiment) was 36.2%. The “survival rate 0619-20 min” value ([11]; single experiment) was 60.6%, the “Mean survival rate (%)” value ([12]; mean of 4 experiments) was 77.1% and the “survival rate 0602-30 min” value ([12]; single experiment) was 52.1%. The “survival rate 0605-10 min” value ([12]; single experiment) was 108.8%, the “survival rate 0607-10 min” value ([12]; single experiment) was 127.4% and the “survival rate 0609-10 min” value ([12]; single experiment) was 20.3%. For the same compound, the “Mean (survival rate)” value ([13]; mean of 3 experiments) was 48.1%, the “survival rate 0602-30 min” value ([13]; single experiment) was 43.9% and the “survival rate 0605-10 min” value ([13]; single experiment) was 31.3%. For the same compound, the “survival rate 0607-10 min” value ([13]; single experiment) was 69.0%, the “Survival rate (%)” value [14] was 36.87% and the “Survival rate (%)” value [15] was 67.2%. For the same compound, the “Survival rate (%)” value [16] was 36.76%, the “Survival rate (%)” value [17] was 59.23% and the “Survival rate (%)” value [18] was 41.6%.
